Assay results reported in PubChem BioAssay (NCI).
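Growth conditions: 96-well plates. Treatment: test compound, 48 hours, 5 concentrations. Analysis: linear interpolation between bracketing concentrations; unreached endpoints set to highest concentration. GI50 marks 50% less growth. TGI marks complete inhibition of growth.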

How the values were obtained:
Test in all cases: NCI-60 cell line screen, 48 h
CCRF-CEM leukemia = system: CCRF-CEM leukemia
HCT-15 colon = system: HCT-15 colon
HOP-62 NSCLC = system: HOP-62 NSCLC
HOP-92 NSCLC = system: HOP-92 NSCLC
K-562 leukemia = system: K-562 leukemia
MOLT-4 leukemia = system: MOLT-4 leukemia
NCI-H460 lung = system: NCI-H460 lung
SF-539 CNS = system: SF-539 CNS
T-47D breast = system: T-47D breast
MDA-MB-435 = system: MDA-MB-435

Structure (SMILES) | TGI (CCRF-CEM leukemia) [µM] | TGI (HCT-15 colon) [µM] | TGI (HOP-62 NSCLC) [µM] | TGI (HOP-92 NSCLC) [µM] | TGI (K-562 leukemia) [µM] | TGI (MOLT-4 leukemia) [µM] | TGI (NCI-H460 lung) [µM] | TGI (SF-539 CNS) [µM] | TGI (T-47D breast) [µM] | TGI (MDA-MB-435) [µM] | GI50 (CCRF-CEM leukemia) [µM] | GI50 (HCT-15 colon) [µM] | GI50 (HOP-62 NSCLC) [µM] | GI50 (HOP-92 NSCLC) [µM] | GI50 (K-562 leukemia) [µM] | GI50 (MOLT-4 leukemia) [µM] | GI50 (NCI-H460 lung) [µM] | GI50 (SF-539 CNS) [µM] | GI50 (T-47D breast) [µM]
CC(=O)Oc1ccc2c(-c3ccccc3)c(Oc3ccc(Cl)cc3)c(=O)oc2c1 | 35.7 | 10 | 34.9 | 22.4 | 31.6 | 34.7 | 27.9 | 31.1 | 21.2 |  |  |  |  |  |  |  |  |  | 
C=CN(C=C)C(=O)Cn1cc(-c2ccccc2)nn1 | > 100 | > 100 | > 100 | > 100 | > 100 | > 100 | > 100 | > 100 |  | > 100 |  |  |  |  |  |  |  |  | 
c1cncc(CSc2nc3ccccc3nc2-c2cccs2)c1 | > 100 | > 100 | > 100 |  | > 100 | 98.7 | > 100 | > 100 |  |  |  |  |  |  |  |  |  |  | 
CN(C)CCNCCCNc1c2ccccc2nc2cccc([N+](=O)[O-])c12 | < 0.0207 | 0.569 | 0.154 | 0.0346 | < 0.0184 | < 0.0192 | 0.108 | 0.263 | 0.0899 | 0.0313 |  |  |  |  |  |  |  |  | 
C/C(=C\CSCC(N)C(=O)O)CC/C=C(\C)CNc1ccccc1 (stereo unspecified) |  | > 100 | > 100 |  | > 100 | > 100 | > 100 | > 100 | > 100 | > 100 |  |  |  |  |  |  |  |  | 
COc1cc2c(c(OC)c1)[C@H](C)N(Cc1ccccc1)C(C)C2 (stereo partly specified) | > 100 | > 100 | > 100 |  | > 100 | > 100 | > 100 | 48.4 | > 100 | 37.8 |  |  |  |  |  |  |  |  | 
CC(C)(C)c1ccnc(N=C2N=C(Nc3cc(C(C)(C)C)ccn3)c3ccccc32)c1 | > 100 | > 100 | 75.5 | 47.1 | > 100 | 85.8 | > 100 | > 100 |  |  |  |  |  |  |  |  |  |  | 
CC(C)(C)/C(O)=C\c1nc2cc(F)c(F)cc2[nH]c1=O | > 100 | > 100 | > 100 | > 100 | > 100 | > 100 | > 100 | > 100 | > 100 | > 100 |  |  |  |  |  |  |  |  | 
CC(C)(C)N=NC(C)(C)N=C=O | > 100 | > 100 | > 100 | > 100 | > 100 | > 100 | > 100 | > 100 |  |  |  |  |  |  |  |  |  |  | 
CCCn1cc2c3c(cccc31)C1C=C(C)CN(C)C1C2 (stereo unspecified) | 44.9 | 49 | 67.2 | 37.9 | 22.6 | 40.2 | 36.6 | 59.5 |  |  |  |  |  |  |  |  |  |  | 
CC(C)=C/C(CC(O)(C(F)(F)F)C(F)(F)F)=N\O | > 100 | > 100 | > 100 | > 100 | > 100 | > 100 | > 100 | > 100 | > 100 | > 100 |  |  |  |  |  |  |  |  | 
COc1ccc(C2C=C(c3ccc(C)cc3)N(c3ccc(OC)cc3[N+](=O)[O-])C3C(=O)OC(=O)C23)c(OC)c1 (stereo unspecified) | > 100 | > 100 | > 100 |  | > 100 | 91.6 | > 100 | 53.2 |  | > 100 |  |  |  |  |  |  |  |  | 
O=[N+]([O-])c1ccc(-c2csc(=[N+]3CCCCC3)s2)cc1 | > 100 | > 100 | 11.6 | 64.9 | > 100 | > 60.9 | > 100 | > 100 |  |  |  |  |  |  |  |  |  |  | 
CN(C)CCCNC(=O)N/N=C/c1ccccc1 | > 100 | > 100 |  |  | > 100 | > 100 | > 100 | > 100 |  |  |  |  |  |  |  |  |  |  | 
COc1ccc(C(=O)/C=C/SC(=NC#N)SC)cc1 |  | 28.8 | 44.1 | > 100 | > 100 | 58 | > 100 | 45.7 | 47.3 | 49.2 |  |  |  |  |  |  |  |  | 
O=C1c2cc3c(cc2-c2c1c1ccc(Cl)cc1c(=O)n2CCCn1ccnc1)OCO3 | 10.5 | > 100 | > 100 | 0.491 | 12.6 | 1.17 | 10.3 | 0.0649 | > 100 |  | < 0.01 | 0.0431 | < 0.01 | 0.0229 | 0.0229 | < 0.01 | < 0.01 | < 0.01 | < 0.01
O=C1Nc2cc(F)ccc2C1=O | > 100 | > 100 | > 100 | > 100 | > 100 | > 100 | > 100 | > 100 |  |  |  |  |  |  |  |  |  |  | 
COc1cc(N=Nc2ccc(OC)c(S(=O)(=O)O)c2)c(C)cc1N=Nc1ccc(/C=C/c2ccc(N=[N+]([O-])c3ccc(/C=C/c4ccc(N=Nc5cc(C)c(N=Nc6ccc(OC)c(S(=O)(=O)O)c6)cc5OC)cc4S(=O)(=O)O)c(S(=O)(=O)O)c3)cc2S(=O)(=O)O)c(S(=O)(=O)O)c1 | > 100 | > 100 | > 100 | > 100 | > 100 | > 100 | > 100 | > 100 |  |  |  |  |  |  |  |  |  |  | 
